Experimental data reported in US7189524B1, “Receptor ligands and methods of modulating receptors” (Amgen, Inc., priority 2002, dated 2007).
pEC50: −log10 of the molar value.

Assays:
TGR183 = TGR183 (Homo sapiens, UniProt Q9BXC0); conditions: concentration of 50 μM, FIG. 3
Experimental: (§1) Aequorin catalyses the oxidation of coelenterazine, but only in the presence of Ca^2+ ions and thus can be used as an indicator of intracellular calcium levels. Briefly, the assays were performed using the following methodology.
(§2) CHO cells were transiently transfected with expression plasmids encoding TGR4b or TGR183 together with a plasmid encoding mitochondria-targeting apoaequorin. The plasmids were co-transfected with chimeric G protein Gαqi9, which has the C-terminal 9 amino acids from the Gαq protein replaced with the C-terminal 9 amino acids form the Gαi protein. Cells were harvested 24 hr later and loaded with coelenterazine for 2 hr at 37 C. Aequorin assay was performed on MicroLumat 96 luminometer (Perkin Elmer).

human adipocytes = experiment: Inhibition of forskolin-stimulated lipolysis of human adipocytes (glycerol release); format: cell-based; conditions: Adipocyte, 0.5 μM Forskolin, 16 hours, glycerol concentration, read-out: EC50 (anti-lipolysis)
TGR4b = target: T1, TGR4b (Homo sapiens, UniProt Q8TDS4); experiment: Aequorin assay for intracellular calcium, CHO cells transfected with TGR4b; format: cell-based; conditions: summary of Table 1
T1 construct: expressed in transfected cells; host or cells: CHO cells, transient
Experimental: as §1, §2

T1 sequence (Q8TDS4 whole entry): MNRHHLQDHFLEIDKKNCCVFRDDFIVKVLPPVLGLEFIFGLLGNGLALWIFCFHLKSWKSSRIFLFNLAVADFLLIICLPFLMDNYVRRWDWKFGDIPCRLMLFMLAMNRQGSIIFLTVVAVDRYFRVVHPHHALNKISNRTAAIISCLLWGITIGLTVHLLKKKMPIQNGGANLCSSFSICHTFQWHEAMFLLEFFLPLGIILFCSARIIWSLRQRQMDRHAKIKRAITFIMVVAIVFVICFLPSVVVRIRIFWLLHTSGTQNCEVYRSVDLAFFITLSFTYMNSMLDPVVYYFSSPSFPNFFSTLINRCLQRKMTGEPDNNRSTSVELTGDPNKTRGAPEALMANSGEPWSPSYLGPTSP
TGR183, sequence (Q9BXC0 whole entry): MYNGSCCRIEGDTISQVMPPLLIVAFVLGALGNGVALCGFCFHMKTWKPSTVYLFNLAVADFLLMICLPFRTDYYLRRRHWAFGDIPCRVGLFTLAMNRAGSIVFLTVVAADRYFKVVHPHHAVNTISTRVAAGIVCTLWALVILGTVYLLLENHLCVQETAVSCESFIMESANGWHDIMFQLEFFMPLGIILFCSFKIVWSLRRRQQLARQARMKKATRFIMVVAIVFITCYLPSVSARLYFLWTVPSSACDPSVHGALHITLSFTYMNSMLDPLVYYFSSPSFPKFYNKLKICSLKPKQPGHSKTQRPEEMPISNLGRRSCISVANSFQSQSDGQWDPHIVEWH

Compound	TGR183-mediated increase in intracellular calcium (TGR183)	pEC50 (human adipocytes)	activity on TGR4b in words (binding and activity assays) (TGR4b)
O=C(O)c1cccnc1 [nicotinic acid, 3-pyridinecarboxylic acid]	stimulated a TGR183-mediated increase in intracellular calcium	7.21	–
NC(=O)c1cccnc1 [Nicotinamide]	–	–	completely inactive
O=C(O)c1cncc(F)c1 [5-fluoro nicotinic acid]	–	–	much lower potency
Cc1cnc(C(=O)O)c[n+]1[O-]	–	5.22	–
O=C(O)c1cnccn1 [2-pyrazinecarboxylic acid]	–	5.19	also active in binding and activity assays
Cl.O=C(O)Cc1cccnc1 [3-pyridineacetic acid HCl]	–	6.11	also exhibits activity
Cl.O=C(Cl)c1cccnc1 [nicotinoyl chloride HCl]	–	6.82	agonist and binding activity similar to that of nicotinic acid
O=C(O)c1ccnnc1 [Pyridazine 4-carboxylic acid]	–	5.55	also active in binding and activity assays
